This is an account of results in publication PMC10741979, “Inhibition of NMDA Receptor Activation in the Rostral Ventrolateral Medulla by Amyloid-β Peptide in Rats” (Biomolecules, 2023).

Format in all cases: in vivo, rats
Test [1] deals with NMDA receptors in the RVLM. Kind of test: NMDA-induced pressor responses in the RVLM after ICV drug administration. The source says: (§1) The procedure for ICV administration of anesthetized rats was similar to those described in our previous study. Adult male Sprague Dawley 8–10 weeks old rats (300–400 g) were used in this experiment under urethane anesthetized (1.2–1.5 g/kg i.p.). The femoral artery was cannulated with polyethylene tubing (PE 50) and connected with its output to BIOPAC Systems Inc. (MP100 or MP160) to measure pulsatile and mean arterial pressure. After a set of blood pressure recordings, each rat was arranged in a stereotaxic frame for ICV and RVLM microinjection using a stainless still needle connected to the Hamilton microsyringes (10 µL). Drugs were microinjected using a syringe pump (KDS 100) at a rate of 10 µL/min. The magnitude of increases in the blood pressure (pressor responses) induced by microinjection of NMDA (0.14 nmol, 100 nL) into the RVLM every 30 min was used as an index of NMDA receptor function in the RVLM. Aβ and 0.9% saline (5 µL) were applied intracerebroventricularly. The data were processed and calculated before the treatment and at a different period after drug administration.
All values are expressed as mean ± SEM and statistically analyzed using GraphPad Prism version 9.0 for Windows (GraphPad Software, San Diego, CA, USA). We analyzed the original data for NMDA-induced increases in MAP (mmHg) before and after applications of Aβ statistically. The time-effect relationship of Aβ on NMDA-induced pressor responses was analyzed using the repeated measure one-way ANOVA followed by Bonferroni’s multiple comparison post-test. p ≤ 0.05 is considered statistically significant. We compared the effects of Aβ on NMDA-increased mean arterial pressure to the control and expressed them as percentage changes; the peak amplitude of NMDA-induced pressor responses before the application of Aβ is taken as control (i.e., 100%). Immunohistochemical data and ELISA data were analyzed using an unpaired t-test. p ≤ 0.05 is considered statistically significant.

For the next test, the system named is GluN1. The experiment in a line: Immunohistochemistry, number of GluN1-immunoreactive neurons in the RVLM. The settings on record: 10 min after ICV 2 nmol; mean ± SEM, n = 6; saline group 63.2 ± 2.4; no significant difference. The method, then: (§2) The procedure of immunostaining of RVLM tissue sections was similar to those previously described. The animals were anesthetized with i.p. urethane (1.2–1.5 g/kg). The rat was sacrificed at 10 min following ICV administration of Aβ or saline by transcardial perfusion with 50 mL of saline followed by 300–400 mL of paraformaldehyde (4%) in 0.1 M phosphate buffer (pH 7.4). The RVLM was post-fixed in the same fixative overnight and then cryoprotected in 30% sucrose in 0.05 M phosphate buffer (pH 7.4) for 48 h. Coronal brainstem sections (30 μm) were cut through the segments using a cryostat (Leica CM3050S, Leica Microsystems Nussloch GmbH, Nussloch, Germany). […] For the relative quantification of immunoreactivity, each image field was captured using a CCD camera mounted on a microscope (Nikon Eclipse E800, Corporation, Tokyo, Japan). […] The average number of immunoreactive (IR) neurons on both sides per section was counted and averaged. We randomly took 4–6 sections per animal and calculated the average number of IR neurons representing the animal’s immunoreactivity to the antibody.
(§3) All values are expressed as mean ± SEM and statistically analyzed using GraphPad Prism version 9.0 for Windows (GraphPad Software, San Diego, CA, USA). We analyzed the original data for NMDA-induced increases in MAP (mmHg) before and after applications of Aβ statistically. […]

The test system of another test is pGluN1-serine896. Kind of test: Immunohistochemistry, number of pGluN1-serine896-immunoreactive neurons in the RVLM. The settings on record: 10 min after ICV 2 nmol; mean ± SEM, n = 6; saline group 48.9 ± 1.8; no significant difference. The method, then: as §2, §3
In another test the test system is GluN2B. The experiment in a line: Immunofluorescence, number of GluN2B-IF neurons in the RVLM. The settings on record: 10 min after ICV 2 nmol; mean ± SEM, n = 7; saline group 55.2 ± 1.4. The protocol:
as §2, §3

In another test the test system is pGluN2B-serine1480. Kind of test: Immunofluorescence, number of pGluN2B-serine1480-IF neurons in the RVLM. The settings on record: 10 min after ICV 2 nmol; mean ± SEM, n = 6; saline group 45.9 ± 1.0 (n = 8); significant difference. The protocol: as §2, §3
Test [2] has as its system NMDA receptors in the RVLM. The experiment in a line: Pressor response to microinjection of NMDA into the RVLM. The settings on record: 0.14 nmol.
Description: as §1

Where [3] appears, read: ICV 2 nmol (Aβ1-40 n = 14, Aβ1-42 n = 9), NMDA 0.14 nmol into RVLM every 30 min, urethane-anesthetized male SD rats.

Turning to “Aβ1-40: soluble human amyloid-beta peptide 1-40, purchased from Taiclone Biotech Corp.”, the “effect on NMDA-induced pressor responses in the RVLM” value in test [1] (ICV 0.2 nmol, n = 12, NMDA 0.14 nmol into RVLM every 30 min, urethane-anesthetized male SD rats) is listed as “slight reduction”; in test [1] (setting [3]), “significantly inhibited”. For the same molecule, the “number of GluN1-IR neurons in the RVLM” value in the test with GluN1 was found to be 63.2 ± 3.8. In the test with pGluN1-serine896, the “number of pGluN1-serine896-IR neurons in the RVLM” value amounted to 46.4 ± 0.8. Further, the “number of GluN2B-IF neurons in the RVLM” value in the test on GluN2B turned out to be 59.2 ± 2.7. The “number of pGluN2B-serine1480-IF neurons in the RVLM” value in the test on pGluN2B-serine1480 is 52.6 ± 2.0.

`CC12CC3CC(C)(C1)CC(N)(C3)C2` [memantine]: the “effect on NMDA-induced pressor responses in the RVLM” value in test [1] (ICV 9 nmol alone, n = 6, 10 and 40 min after administration) is on record as “did not produce any noticeable changes”. For the same molecule, the “effect of co-administration on the inhibitory effects of Aβ1-40 on NMDA-induced pressor responses” value in test [1] (ICV memantine 9 nmol with Aβ1-40 2 nmol, n = 4) is “disappeared”.

`CN[C@H](CC(=O)O)C(=O)O` [NMDA, N-methyl-D-aspartate]: in test [2] (100 nL into RVLM), the “duration of pressor responses” value lay in the range of 10 to 15 min and the “onset of pressor responses” value is no more than 2 min. The “effect of microinjection into the RVLM on MAP” value in test [2] (100 nL, at intervals of 30 min, urethane-anesthetized male SD rats) is reported as “induced an increase in MAP”.

Consider “Aβ1-42: soluble human amyloid-beta peptide 1-42, purchased from Taiclone Biotech Corp.”, for which the “effect on NMDA-induced pressor responses in the RVLM” value in test [1] (setting [3]) is listed as “did not produce any noticeable changes”. Moreover, the “effect on NMDA-induced pressor responses in the RVLM on co-administration with ifenprodil” value in test [1] (ICV Aβ1-42 2 nmol with ifenprodil 0.5 nmol, n = 6) is on record as “little effect”. Besides, in test [1] (ICV Aβ1-42 2 nmol with memantine 9 nmol, n = 6), the “effect on NMDA-induced pressor responses in the RVLM on co-administration with memantine” value was “did not show noticeable changes”.

For `CC(C(O)c1ccc(O)cc1)N1CCC(Cc2ccccc2)CC1` (centres unmarked) [ifenprodil], the “effect on NMDA-induced pressor responses in the RVLM” value is given as “did not produce any noticeable changes” in test [1] (ICV 0.5 nmol alone, n = 5) and “significantly inhibited” in test [1] (ICV 2.5 nmol alone, n = 5). For the same molecule, the “effect of co-administration on the inhibitory effects of Aβ1-40 on NMDA-induced pressor responses” value in test [1] (ICV ifenprodil 0.5 nmol with Aβ1-40 2 nmol, n = 6) is recorded as “attenuated the inhibitory effects”.
